From US8039430B2 (University of Wollongong, priority 2005, dated 2011)

Tests used:
[1] = system: Staphylococcus aureus (ATCC 6538P); assay: Antibacterial assay (MIC), Staphylococcus aureus ATCC 6538P, Luria Broth, Example 1; assay type: cell-based; conditions: Staphylococcus aureus, ATCC6538P; Example 1 compounds; S. aureus ATCC 6538P; 24 hrs, 37° C.; range if at least two of three values fell within it; read-out: Sa (minimum inhibitory concentration)
Method: (§1) Antibacterial Assay Method for Staphylococcus aureus (ATCC 6538P) and Enterococcus faecium
Staphylococcus aureus (ATCC 6538P)
(§2) Compounds are accurately weighed out (between approx. 1-2 mg) and dissolved in either 10% methanol/water (v/v) or 100% DMSO to a final stock concentration of 5 mg/ml.
(§3) Compounds are then diluted 1/10 in H2O to a test conc of 500 ug/ml ready for immediate use, or storage at −20° C.
(§4) Grow up an o/n starter culture of Staphylococcus aureus and each VRE strain by diluting previous culture (stored at 4° C.) 1/1000 into −50 mls Luria Broth (LB) for S. aureus or Enterococossel Broth (EB) for the VRE strains.
(§5) Incubate o/n at 37° C.+shaking. • A glycerol stock (0.6 mls bacterial culture, 0.3 mls glycerol) of each strain is kept at −80° C. if needed. Assay Set Up:
(§6) In a 96well round bottom plate add 50 ul LB/well for the S. aureus plate and add 50 ul EB/well for the VRE plates.
(§7) Add 50 ul of compound dilution (500 ug/ml test conc) to each of three top row wells (ie: tested in triplicate) and dilute 1 in 2 from the top row to the bottom row.
(§8) After the compound dilution, add to each well 50 ul of a 1/1000 dilution of the appropriate overnight bacterial culture, either S. aureus or the different VRE strains.
(§9) Plates are incubated at 37° C. on a slowly rotating plate incubator. • test concentrations are (in ug/ml) 125, 62.5, 31.25, 15.6, 7.8, 3.9, 1.9, 0.98 • final DMSO concentration in the first row of wells of the assay is 2.5% • Vancomycin is included in the assay (in triplicate) at a starting test concentration of 5 ug/ml for S. aureus and 125 ug/ml for the VRE strains Reading Results of Assay:
(§10) After incubation for 24 hrs the plates are removed and read. Inhibition of bacterial growth is indicated by lack of bacterial pellet or a clear well. In the VRE plates bacterial growth is indicated by black coloured media (EB) as well as a bacterial pellet.
(§11) Untreated control wells are included in the assay to check they all contain bacterial pellets. Uninoculated untreated control wells are included to check they all contain clear medium.
(§12) The plates are analysed for MIC and the results tabulated.

[2] = system: #243 E. faecium van B ST17; assay: Antibacterial assay (MIC), VRE strain #243, Enterococossel Broth, Example 1; assay type: cell-based, Enterococcus faecium; conditions: Enterococcus faecium; Example 1 compounds; VRE #243 E. faecium van B; 24 hrs, 37° C.; read-out: 243 (minimum inhibitory concentration)
Method: as §1
(§13) VRE strains: #243 E. faecium van B ST17 #449 E. faecium van B ST17
as §2, §3, §4, §5, §6, §7, §8, §9, §10, §11, §12

[3] = system: #449 E. faecium van B ST17; assay: Antibacterial assay (MIC), VRE strain #449, Enterococossel Broth, Example 1; assay type: cell-based, Enterococcus faecium; conditions: Enterococcus faecium; Example 1 compounds; VRE #449 E. faecium van B; 24 hrs, 37° C.; read-out: 449 (minimum inhibitory concentration)
Method: as §1, §13, §2, §3, §4, §5, §6, §7, §8, §9, §10, §11, §12

[4] = system: #820 E. faecium van A ST17; assay: Antibacterial assay (MIC), VRE strain #820, Enterococossel Broth, Example 1; assay type: cell-based, Enterococcus faecium; conditions: Enterococcus faecium; Example 1 compounds; VRE #820 E. faecium van A; 24 hrs, 37° C.; read-out: 820 (minimum inhibitory concentration)
Method: as §1
(§14) #820 E. faecium van A ST17 #987 E. faecium van B ST39
as §2, §3, §4, §5, §6, §7, §8, §9, §10, §11, §12

[5] = system: #987 E. faecium van B ST39; assay: Antibacterial assay (MIC), VRE strain #987, Enterococossel Broth, Example 1; assay type: cell-based, Enterococcus faecium; conditions: Enterococcus faecium; Example 1 compounds; VRE #987 E. faecium van B; 24 hrs, 37° C.; read-out: 987 (minimum inhibitory concentration)
Method: as §1, §14, §2, §3, §4, §5, §6, §7, §8, §9, §10, §11, §12

[6] = system: Staphylococcus aureus Mu50 (ATCC 700699); assay: MIC determination by micro-broth dilution (NCCLS), S. aureus Mu50; assay type: cell-based; conditions: ATCC700699, Example 1 compounds, Mueller Hinton II broth, 24 hours, 37° C.
Method: (§15) Antibacterial Assay Methods for Staphylococcus aureus Mu50 (ATCC 700699), Methicillin-Resistant Staphylococcus aureus (ATCC 43300), Multi-Drug-Resistant Staphylococcus epidermidis (ATCC 700562) Compounds
(§16) The compounds were stored at room temperature in the dark prior to use. Each compound was solubilized in DMSO to a final concentration of 40 mg/mL. The stock material was diluted to a concentration equivalent to two times the final in-well high test concentration (100 μg/mL for all experimental compounds) in Mueller Hinton II broth. […] Vancomycin and oxacillin were obtained from Sigma Aldrich Chemical Company and were used as positive and/or negative control compounds in the reported assays at high test concentrations of 100, 25 and 100 μg/mL respectively.
(§17) The bacterial strains employed in these assays were obtained from the American Type Culture Collection (ATCC). All of the bacterial strains were propagated as recommended by the ATCC. Each strain was stored as a frozen glycerol stock at −80° C. and a 10 μL loop of the frozen stocks was used to inoculate each culture for these assays.
(§18) The susceptibility of the above microorganisms to the test compounds was evaluated by determining the MIC of each compound using micro-broth dilution analysis according to the methods recommended by the NCCLS. All microbial strains were obtained from American Type Culture Collections (ATCC) and cultured according to the suppliers recommendations. Evaluation of the susceptibility of each organism against the test compounds included a positive control antibiotics Vancomycin and Oxacillin. For each organism, a standardized inoculum was prepared by direct suspension of freshly plated colonies in Mueller Hinton II broth to an optical density 625 nm (OD625) of 0.1 (equivalent to a 0.5 McFarland standard). The suspended inoculum was diluted to a concentration of approximately 1×10^6 colony forming units per milliliter (CFU/mL) and 100 μL placed into triplicate wells of a 96-well plate containing 100 μL of test compound serially diluted 2-fold in Mueller Hinton II broth. One hundred microliters of the inoculum was also added to triplicate wells containing 100 μL of two-fold serial dilutions of a positive control antibiotic and to wells containing 100 μL of media only. This dilution scheme yielded final concentrations for each microbial organism estimated to be 5×10^5 CFU/mL (verified by colony quantification on appropriate agar plates, data is not presented). Test compound concentrations ranged from a high-test of 1:2 (100 μg/mL)) to a low test of 1:2048 (0.1 μg/mL) using a two-fold dilution scheme. The plates were incubated for 24 hours at 37° C., and the microbial growth at each concentration of compound was determined by measuring the optical density at 625 nm on a Molecular Devices SpectraMax Plus-384 plate reader.
(§19) Microsoft Excel 2003 was used to analyze and graph the data, and the MIC (minimal inhibitory concentration) was determined from the resulting data.

[7] = system: Methicillin-Resistant Staphylococcus aureus (ATCC 43300); assay: MIC determination by micro-broth dilution (NCCLS), methicillin-resistant S. aureus; assay type: cell-based; conditions: ATCC43300, Example 1 compounds, Mueller Hinton II broth, 24 hours, 37° C.
Method: as §15, §16, §17, §18, §19

[8] = system: Multi-Drug-Resistant Staphylococcus epidermidis (ATCC 700562); assay: MIC determination by micro-broth dilution (NCCLS), multi-drug-resistant S. epidermidis; assay type: cell-based; conditions: ATCC700562, Example 1 compounds, Mueller Hinton II broth, 24 hours, 37° C.
Method: as §15, §16, §17, §18, §19

| Compound | MIC [1] | MIC [2] | MIC [3] | MIC [4] | MIC [5] | MIC [6] | MIC [7] | MIC [8] |
| --- | --- | --- | --- | --- | --- | --- | --- | --- |
| CC(C)CCOc1ccc2ccccc2c1-c1c(OCC(=O)N[C@H](CCCCN)C(=O)N[C@H](CCCNC(=N)N)C(=O)N[C@@H](CC(C)C)C(=O)OCc2ccccc2)ccc2ccccc12.Cl.Cl (atropisomer, axis not shown) [Compound 1] | 0.99 to 15.6 µg/mL | 15.7 to 62.5 µg/mL | 15.7 to 62.5 µg/mL | 0.99 to 15.6 µg/mL | 15.7 to 62.5 µg/mL | 0.99 to 15.6 µg/mL | 0.99 to 15.6 µg/mL | 0.99 to 15.6 µg/mL |
| CC(C)CCOc1ccc2ccccc2c1-c1c(OCC(=O)N[C@H](CCCCN)C(=O)N[C@H](CCCNC(=N)N)C(=O)N[C@H](COCc2ccccc2)CC(C)C)ccc2ccccc12.Cl.Cl (atropisomer, axis not shown) [Compound 15] | 0.99 to 15.6 µg/mL | 15.7 to 62.5 µg/mL | 15.7 to 62.5 µg/mL | 15.7 to 62.5 µg/mL | 15.7 to 62.5 µg/mL | 0.99 to 15.6 µg/mL | 0.99 to 15.6 µg/mL | 0.99 to 15.6 µg/mL |
| CC(C)CCOc1ccc2ccccc2c1-c1c(OCC(=O)N[C@H](CCCCN)C(=O)N[C@H](CCCNC(=N)N)C(=O)N[C@@H](CC(C)C)c2ncc(-c3ccccc3)o2)ccc2ccccc12.Cl.Cl (atropisomer, axis not shown) [Compound 16] | 0.99 to 15.6 µg/mL | > 62.6 µg/mL | > 62.6 µg/mL | > 62.6 µg/mL | > 62.6 µg/mL | 0.99 to 15.6 µg/mL | 0.99 to 15.6 µg/mL | 0.99 to 15.6 µg/mL |
| CC(C)CCOc1ccc2ccccc2c1-c1c(OCC(=O)N[C@H](CCCCN)C(=O)N[C@H](CCCNC(=N)N)C(=O)N[C@@H](CC(C)C)c2nc(S(=O)(=O)O)c(-c3ccccc3)o2)ccc2ccccc12.Cl.Cl (atropisomer, axis not shown) [Compound 17] | < 0.98 µg/mL | 15.7 to 62.5 µg/mL | 15.7 to 62.5 µg/mL | 15.7 to 62.5 µg/mL | 15.7 to 62.5 µg/mL | 0.99 to 15.6 µg/mL | 0.99 to 15.6 µg/mL | 0.99 to 15.6 µg/mL |
| CC(C)CCOc1ccc2ccccc2c1-c1c(OCC(=O)N[C@H](CCCCN)C(=O)N[C@H](CCCNC(=N)N)C(=O)NC2(C(=O)OCc3ccccc3)CCCCC2)ccc2ccccc12.Cl.Cl (atropisomer, axis not shown) [Compound 21] | 0.99 to 15.6 µg/mL | 15.7 to 62.5 µg/mL | 15.7 to 62.5 µg/mL | 15.7 to 62.5 µg/mL | 15.7 to 62.5 µg/mL | 0.99 to 15.6 µg/mL | 0.99 to 15.6 µg/mL | 0.99 to 15.6 µg/mL |
